Experimental data taken from US5324708A, “Non-hygroscopic monoammonium salts of phosphonic and phosphinic acids” (Aklaloida Vegyeszeti Gyar Rt., priority 1991, dated 1994).
Structures can show the parent of a compound that is named as a salt. Where two headings read alike, the source gives them in different places.

Tests used:
[1] = Uptake of humidity in open containers at 60% humidity and 25° C. (Table VI); assay type: physicochemical; settings: 60% humidity
Protocol: The samples were investigated in open containers, at 60% humidity and 25° C.

[2] = Solubility tests, N-(phosphonomethyl)-glycine and its salts (Table IV); assay type: physicochemical
Excerpt: Table IV illustrates some solubility values of the mono-isopropylammonium salts and di-isopropylammonium salts of N-(phosphonomethyl)-glycine on the basis of which the processes according to our invention can be reduced to practice. All solvents or solvent-mixtures can be used for our processes which show a reasonable solubility--difference between the salts and products that have to be separated.

[3] = according to prior publications; cited from earlier work
[4] = Water solubility of products (in words); assay type: physicochemical
[5] = Hygroscopicity of products (in words); assay type: physicochemical; settings: product of the example
Protocol: "Non-hygroscopic" according to our invention means, that when exposed at 25° C. to an environment containing 60% humidity no observable uptake of water takes place within 3 weeks or this uptake is less than 0.1%. The salts are crystalline, they have melting point ranges that are different from those published before and their water-solubility is somewhat increased as compared with the salts prepared with the known methods.

O=C(O)CNCP(=O)(O)O [mono-IPA salt, mono-isopropylammonium salt of N-(phosphonomethyl)-glycine]
Uptake of humidity ([1]; 1 day): 0.1% | Uptake of humidity ([1]; 2 days): 0.1% | Uptake of humidity ([1]; 7 days): 0.1% | Uptake of humidity ([1]; 14 days): 0.1% | Uptake of humidity ([1]; 30 days): 0.1% | Uptake of humidity ([1]; 90 days): 0.1% | Appearance ([1]; after 30 days): unchanged | SOLUBILITY ([2]; benzene): < 0.1 g/L | SOLUBILITY ([2]; benzyl-alcohol): 0.5 g/L | SOLUBILITY ([2]; dimethyl-formamide): 1.8 g/L | SOLUBILITY ([2]; isopropyl amine): < 0.1 g/L | SOLUBILITY ([2]; methanol): 56 g/L | SOLUBILITY ([2]; n-butanol): 0.1 g/L | SOLUBILITY ([2]; n-propanol): 0.7 g/L | SOLUBILITY ([2]; propylene-glycol): 184.0 g/L | SOLUBILITY ([2]; water): 1470 g/L | hygroscopicity (in words) [3]: extreme hygroscopic nature

CP(=O)(O)CCC(N)C(=O)O (stereo not shown) [mono-ammonium salt, (3-amino-3-carboxy-propyl)-methane-phosphinic acid ammonium salt]
hygroscopicity (in words) [3]: hygroscopic

O=C(O)CNCP(=O)(O)O [I.13, mono-isopropylammmonium salt of N-(phosphonomethyl)-glycine]
solubility in water (in words) [4]: readily soluble | hygroscopicity (in words) [5]: non-hygroscopic

O=C(O)CNCP(=O)(O)O [glyphosate, N-(phosphonomethyl)-glycine]
SOLUBILITY ([2]; benzene): < 0.1 g/L | SOLUBILITY ([2]; benzyl-alcohol): < 0.2 g/L | SOLUBILITY ([2]; dimethyl-formamide): < 0.2 g/L | SOLUBILITY ([2]; ethanol): 0.2 g/L | SOLUBILITY ([2]; isopropanol): < 0.5 g/L | SOLUBILITY ([2]; methanol): < 0.3 g/L | SOLUBILITY ([2]; n-propanol): < 0.5 g/L | SOLUBILITY ([2]; water): 12 g/L

O=C(O)CNCP(=O)(O)O [I.16, mono-isopropylammonium salt of N-(phosphonomethyl)-glycine]
solubility in water (in words) [4]: readily soluble | hygroscopicity (in words) [5]: non-hygroscopic

O=C(O)CNCP(=O)(O)O [I.22, mono-isopropylammonium salt of N-(phosphonomethyl)-glycine]
solubility in water (in words) [4]: readily soluble | hygroscopicity (in words) [5]: non-hygroscopic

O=C(O)CNCP(=O)(O)O [I.14, mono-isopropylammonium salt of N-(phosphonomethyl)-glycine]
solubility in water (in words) [4]: readily soluble | hygroscopicity (in words) [5]: non-hygroscopic

O=C(O)CNCP(=O)(O)O [I.17, mono-isopropylammonium salt of N-(phosphonomethyl)-glycine]
solubility in water (in words) [4]: readily soluble | hygroscopicity (in words) [5]: non-hygroscopic

O=C(O)CNCP(=O)(O)O [Example I.18, mono-(dimethyl-ammonium)-salt of N-(phosphonomethyl)-glycine]
solubility in water (in words) [4]: readily soluble | hygroscopicity (in words) [5]: non-hygroscopic

O=C(O)CNCP(=O)(O)O [I.7, mono-isopropylammonium salt of N-(phosphonomethyl)-glycine]
hygroscopicity (in words) [5]: non-hygroscopic

CP(=O)(O)CCC(N)C(=O)O (stereo not shown) [I.9, mono-isopropylammoniumsalt of (3-amino-3-carboxy-propyl)-methane-phosphinic acid]
hygroscopicity (in words) [5]: non-hygroscopic

O=C(O)CNCP(=O)(O)O [I.21, mono-isopropylammonium salt of N-(phosphonomethyl)-glycine]
solubility in water (in words) [4]: readily soluble | hygroscopicity (in words) [5]: non-hygroscopic

O=C(O)CNCP(=O)(O)O [I.8, mono-isopropylammoniumsalt of N-(phosphonomethyl)-glycine]
solubility in water (in words) [4]: readily soluble | hygroscopicity (in words) [5]: non-hygroscopic

O=C(O)CNCP(=O)(O)O [Example I.24, mono-isopropylammonium salt of N-(phosphonomethyl)-glycine]
solubility in water (in words) [4]: readily soluble | hygroscopicity (in words) [5]: non-hygroscopic

O=C(O)CNCP(=O)(O)O [Example I.1, mono-isopropylammonium salt of N-(phosphonomethyl)-glycine]
solubility in water (in words) [4]: readily soluble | hygroscopicity (in words) [5]: not hygroscopic

O=C(O)CNCP(=O)(O)O [I.23, mono-isoptopylammonium salt of N-(phosphonomethyl)-glycine]
solubility in water (in words) [4]: readily soluble | hygroscopicity (in words) [5]: non-hygroscopic

CP(=O)(O)CCC(N)C(=O)O (stereo not shown) [I.10, mono-isopropylammoniumsalt of (3-amino-3-carboxy-propyl)-methane-phosphinic acid]
hygroscopicity (in words) [5]: non-hygroscopic

O=C(O)CNCP(=O)(O)O [I.26, mono-isopropylammonium salt of N-(phosphonomethyl)-glycine]
solubility in water (in words) [4]: readily soluble | hygroscopicity (in words) [5]: non-hygroscopic

O=C(O)CNCP(=O)(O)O [Example I.12, mono-isopropylammmonium salt of N-(phosphonomethyl)-glycine]
solubility in water (in words) [4]: readily soluble | hygroscopicity (in words) [5]: non-hygroscopic

O=C(O)CNCP(=O)(O)O [I.19, mono-ethylammonium salt of N-(phosphonomethyl)-glycine]
solubility in water (in words) [4]: readily soluble | hygroscopicity (in words) [5]: non-hygroscopic

O=C(O)CNCP(=O)(O)O [Example I.2, mono-isopropylammonium salt of N-(phosphonomethyl)-glycine]
solubility in water (in words) [4]: readily soluble | hygroscopicity (in words) [5]: not hygroscopic

O=C(O)CNCP(=O)(O)O [I.25, mono-isopropylammonium salt of N-(phosphonomethyl)-glycine]
solubility in water (in words) [4]: readily soluble | hygroscopicity (in words) [5]: non-hygroscopic

O=C(O)CNCP(=O)(O)O [di-IPA salt, di-(mono-isopropylamine)-salt of N-(phosphonomethyl)-glycine]
solubility in water (in words) [4]: readily soluble | Uptake of humidity ([1]; 1 day, listed as di-isopropyl-ammonium salt of N-(phosphonomethyl)-glycine): 13.0% | Uptake of humidity ([1]; 2 days, listed as di-isopropyl-ammonium salt of N-(phosphonomethyl)-glycine): 14.5% | Uptake of humidity ([1]; 7 days, listed as di-isopropyl-ammonium salt of N-(phosphonomethyl)-glycine): 16.1% | Uptake of humidity ([1]; 14 days, listed as di-isopropyl-ammonium salt of N-(phosphonomethyl)-glycine): 18.8% | Uptake of humidity ([1]; 30 days, listed as di-isopropyl-ammonium salt of N-(phosphonomethyl)-glycine): 19.2% | Uptake of humidity ([1]; 90 days, listed as di-isopropyl-ammonium salt of N-(phosphonomethyl)-glycine): 30.9% | Appearance ([1]; within 1 day): sticky and hygroscopic | Appearance ([1]; within 4 days): completely liquid | SOLUBILITY ([2]; benzene): < 0.1 g/L | SOLUBILITY ([2]; benzyl-alcohol): 420 g/L | SOLUBILITY ([2]; dimethyl-formamide): 22 g/L | SOLUBILITY ([2]; isopropyl amine): < 0.1 g/L | SOLUBILITY ([2]; methanol): 570 g/L | SOLUBILITY ([2]; n-butanol): 35 g/L | SOLUBILITY ([2]; n-propanol): 170 g/L | SOLUBILITY ([2]; propylene-glycol): 244 g/L

O=C(O)CNCP(=O)(O)O [Example I.20, mono-isopropylammonium salt of N-(phosphonomethyl)-glycine]
solubility in water (in words) [4]: readily soluble | hygroscopicity (in words) [5]: non-hygroscopic

O=C(O)CNCP(=O)(O)O [Example I.15, mono-isopropylammonium salt of N-(phosphonomethyl)-glycine]
solubility in water (in words) [4]: readily soluble | hygroscopicity (in words) [5]: non-hygroscopic
